Results as given in article PMC10500568, “Inhibition of MurA Enzyme from Escherichia coli by Flavonoids and Their Synthetic Analogues” (ACS Omega, 2023).
Read-outs that look alike come from different tables or passages of the source.

How the values were obtained:
[1] = test system: E. coli (ATCC 25922); experiment: Antibacterial assay, broth microdilution MIC; type: cell-based, Escherichia coli
Procedure: (§1) To test antimicrobial properties, a broth microdilution method in 96-well plates was used according to Clinical and Laboratory Standards Institute guidelines[31] and European Committee on Antimicrobial Susceptibility Testing ([…]) recommendations.[32] Bacterial suspensions, equivalent to a 0.5 McFarland turbidity standard, were diluted with cation-adjusted Mueller–Hinton broth with TES buffering (ThermoFisher Scientific) to achieve a final inoculum of 10^5 CFU/mL. Compounds dissolved in 100% DMSO at a concentration of 10 mM were mixed with the inoculum and incubated at 35 °C for 20 h.

[2] = target: T1, MurA enzyme from E. coli (Escherichia coli, UniProt P0A749); experiment: MurA inhibition assay (malachite green, orthophosphate release); type: biochemical; conditions: for effect of DTT on inhibition (comparison of RAs): in the presence of DTT; for inhibitory activity on MurA in at least one of the three assays: residual activity at 100 μM, threshold 50% RA, no preincubation, 30 min preincubation, or 30 min + DTT; for time-dependent inhibition: inactive without preincubation, activity after 30 min of preincubation: 0 min vs 30 min preincubation
Procedure: To determine the inhibition of MurA, the colorimetric assay with malachite green was used to measure the release of orthophosphate generated during the reaction.[30] […] Time-dependent inhibition assays were also performed by preincubating MurA with the 200 μM UNAG substrate and target compounds for 30 min at 37 °C before starting the reaction with the addition of the second substrate 100 μM PEP, resulting in a final mixture volume of 50 μL. The reaction was stopped after a 15 min incubation at 37 °C by adding the Biomol reagent (100 μL, Enzo Life Sciences, New York), and the absorbance was measured after 5 min at 650 nm using a microplate reader (BioTek, Synergy H4). The final concentration of DMSO in the reaction mixture was 5% (v/v), and 1 μM fosfomycin was used as a reference in the MurA assay. The percentage of residual activity was calculated in comparison to the negative controls, which contained only 5% DMSO. IC50 values were determined by measuring residual activities at 7 different concentrations of the compounds and calculated using GraphPad Prism (GraphPad Software, San Diego, California).
The initial screening of flavonoids was performed under three different assay conditions: (1) without preincubation, (2) with a 30 min preincubation, and (3) with the addition of dithiothreitol (DTT) along with a 30 min preincubation. These different conditions were necessary to understand the mechanism of inhibition of each flavonoid. […] To distinguish whether the adduct formed between the inhibitor and the enzyme was covalent or noncovalent, the inhibitory activity was tested in the presence of 0.1 mM DTT.

[3] = test system: S. aureus (ATCC 29213); experiment: Antibacterial assay, broth microdilution MIC; type: cell-based, Staphylococcus aureus; conditions: for inhibition of S. aureus growth: broth microdilution
Procedure: as §1

[4] = target: T1, MurA enzyme from E. coli; experiment: MurA dilution assay; type: biochemical; conditions: for RA% (residual activity), dilution assay: compound at 10 times IC50, 30 min preincubation, then 100-fold dilution
Procedure: The enzyme concentration used was the usual concentration in reactivity assays 100-fold (25 μM). After 30 min of preincubation, the mixture was diluted 100-fold, then the previously described reactivity assay was performed using 100 μM PEP.

[5] = test system: S. aureus; parameters: method as in PMID 18313801; conditions: cited from earlier work
[6] = Escherichia coli, ATCC25922, E. coli ATCC 25922, 35 °C, 20 h, read-out: MIC E. coli
[7] = 100 μM, 30 min preincubation with addition of DTT (0.1 mM), read-out: RA% (residual activity), 30 min + DTT
[8] = 30 min preincubation, read-out: IC50, 30 min
[9] = without preincubation, read-out: IC50, 0 min
[10] = Staphylococcus aureus, ATCC29213, S. aureus ATCC 29213, 35 °C, 20 h, read-out: MIC S. aureus
[11] = 100 μM, without preincubation, read-out: RA% (residual activity), 0 min

T1 sequence (P0A749 whole entry): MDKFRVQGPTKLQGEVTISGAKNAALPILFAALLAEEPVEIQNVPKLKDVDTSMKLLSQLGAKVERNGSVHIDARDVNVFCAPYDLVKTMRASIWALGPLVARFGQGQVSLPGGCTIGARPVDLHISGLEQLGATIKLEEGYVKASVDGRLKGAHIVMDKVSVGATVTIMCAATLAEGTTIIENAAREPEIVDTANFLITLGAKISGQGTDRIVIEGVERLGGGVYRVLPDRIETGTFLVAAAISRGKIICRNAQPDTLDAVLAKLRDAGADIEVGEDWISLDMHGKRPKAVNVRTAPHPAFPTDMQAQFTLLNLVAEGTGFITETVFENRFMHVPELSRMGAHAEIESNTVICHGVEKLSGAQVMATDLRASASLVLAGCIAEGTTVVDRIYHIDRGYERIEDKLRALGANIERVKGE

| Compound | MIC [1, 6] [µM] | remaining activity at 100 µM [2, 7] [%] | Hill coefficient, 30 min ([2]; 30 min preincubation) | effect of DTT on inhibition (comparison of RAs) ([2]; 30 min preincubation) | IC50 [2, 8] [µM] | inhibitory activity on MurA in at least one of the three assays [2] | Hill coefficient, 0 min ([2]; without preincubation) | IC50 [2, 9] [µM] | MIC [3, 10] [µM] | RA% (residual activity), dilution assay [4] [%] | time-dependent inhibition: inactive without preincubation, activity after 30 min of preincubation ([2]; 100 μM) | remaining activity at 100 µM [2, 11] [%] | other results |
| --- | --- | --- | --- | --- | --- | --- | --- | --- | --- | --- | --- | --- | --- |
| Oc1cc(O)c2c(c1)O[C@H](c1ccc(O)c(O)c1)[C@@H](O)[C@H]2O [Compound 35, leucocyanidin] | > 250 | 13 | 2.9 | reduced inhibition in the presence of DTT | 28.6 | showed inhibitory activity | 2.6 | 69 | > 250 | – | – | – | Hill coefficient (dose-response curves at 0 and 30 min) [2]: > 2.5 |
| COc1cc(O)c2c(=O)c(O)c(-c3ccc(O)c(O)c3)oc2c1 [Compound 8, rhamnetin] | > 250 | 58 | 1.1 | reduced inhibition in the presence of DTT | 13 | showed inhibitory activity | 1.1 | 96 | > 250 | 77 | – | – | – |
| CN(C)[C@@H]1C(O)=C(C(N)=O)C(=O)[C@@]2(O)C(O)=C3C(=O)c4c(O)cccc4[C@@](C)(O)[C@H]3C[C@@H]12 [tetracycline, reference compound] | – | – | – | – | – | – | – | – | – | – | – | – | MIC ([1]; Escherichia coli, ATCC25922, E. coli ATCC 25922, read-out: MIC E. coli (positive control)): 1 µg/mL; MIC ([3]; Staphylococcus aureus, ATCC29213, S. aureus ATCC 29213, read-out: MIC S. aureus (positive control)): 0.5 µg/mL |
| O=c1cc(-c2ccccc2)oc2c(O)c(O)ccc12 [Compound 25, 7,8-dihydroxyflavone] | > 250 | 89 | 1.4 | – | 12.9 | showed inhibitory activity | 2 | 88 | 125 | 100 | – | – | inhibition of S. aureus growth [3]: weak inhibition |
| O=C1c2c(O)cc(O)cc2O[C@H](c2cc(O)c(O)c(O)c2)[C@H]1O [Compound 49, ampelopsin] | > 250 | 101 | 0.8 | – | 0.48 | showed inhibitory activity | 0.8 | 36 | 125 | 100 | – | – | Hill coefficient (dose-response curves at 0 and 30 min) [2]: ~1; inhibition of S. aureus growth [3]: weak inhibition |
| O=c1c(O)c(-c2ccc(O)c(O)c2)oc2cc(O)ccc12 [Compound 2, fisetin] | > 250 | 60 | 1.0 | reduced inhibition in the presence of DTT | 8.8 | showed inhibitory activity | 1.4 | 91 | > 250 | 98 | – | – | – |
| myricitrin [Compound 5] | – | – | 0.6 | – | – | showed inhibitory activity | – | – | – | 97 | – | – | MIC ([1]; E. coli ATCC 25922, 35 °C, 20 h, read-out: MIC E. coli): >250 µM; RA% (residual activity), 30 min + DTT ([2]; 100 μM, 30 min preincubation with addition of DTT (0.1 mM)): 106%; RA% (residual activity), 0 min ([2]; 100 μM, without preincubation): 76%; MIC ([3]; S. aureus ATCC 29213, 35 °C, 20 h, read-out: MIC S. aureus): >250 µM |
| O=C1c2c(O)cc(O)cc2OC(c2ccc(O)c(O)c2)C1O (centres unmarked) [Compound 47, taxifolin] | > 250 | 105 | 0.5 | – | 4.5 | showed inhibitory activity | – | – | > 250 | 93 | active after 30 min of preincubation | 98 | – |
| O=c1cc(-c2ccccc2)oc2cc(O)c(O)c(O)c12 [Compound 26, baicalein] | > 250 | 86 | 1.4 | – | 61 | showed inhibitory activity | – | – | 31 | 50 | active after 30 min of preincubation | 66 | effect on E. coli growth ([1]; broth microdilution): had no effect; inhibitory activity after dilution ([4]; dilution assay): retained some inhibitory activity; inhibition of S. aureus growth [3]: weak inhibition |
| O=C1C[C@@H](c2ccccc2)Oc2ccccc21 [Compound 46, flavanone] | – | – | – | – | – | showed inhibitory activity | – | – | – | – | – | – | – |
| O=c1c(O)c(-c2ccc(O)c(O)c2)oc2cc(O)cc(O)c12 [Compound 9, quercetin] | > 250 | 46 | 1.3 | reduced inhibition in the presence of DTT | 9.3 | showed inhibitory activity | 0.8 | 14 | > 250 | 93 | – | – | – |
| COc1cc(O)cc2c1C(=O)C[C@@H](c1ccccc1)O2 [Compound 48, (−)-alpinetin] | > 250 | 102 | 1.6 | – | 57 | – | – | – | > 250 | 93 | active after 30 min of preincubation | 66 | – |
| O=c1cc(-c2ccc(O)c(O)c2)oc2cc(O)cc(O)c12 [Compound 17, luteolin] | > 250 | 96 | 1.3 | – | 41.5 | showed inhibitory activity | – | – | 125 | 91 | – | 68 | antibacterial activity against S. aureus, previous report [5]: 50 µg/mL; inhibition of S. aureus growth [3]: weak inhibition |
| O=c1c(O)c(-c2cc(O)c(O)c(O)c2)oc2cc(O)cc(O)c12 [Compound 4, myricetin] | > 250 | 34 | 1.9 | reduced inhibition in the presence of DTT | – | showed inhibitory activity | 0.8 | – | > 250 | 84 | active after 30 min of preincubation | – | – |
| C[C@@H]1O[C@@H](Oc2c(-c3ccc(O)c(O)c3)oc3cc(O)cc(O)c3c2=O)[C@H](O)[C@H](O)[C@H]1O [Compound 10, quercitrin] | – | 103 | 1.1 | – | 33 | showed inhibitory activity | – | – | – | 88 | active after 30 min of preincubation | 66 | MIC ([1]; Escherichia coli, ATCC25922, 20 h, read-out: MIC E. coli): > 250 µM; MIC ([3]; Staphylococcus aureus, ATCC29213, 20 h, read-out: MIC S. aureus): > 250 µM |
